Test results reported in patent US8236523B2, “Camp reporters and high throughput assays” (The Johns Hopkins University, priority 2004, dated 2012).

Assays:
Assay type in all cases: cell-based
cAMP [1] = experiment: 96-well live cell plate reading of HEK293 cells expressing ICUE3; conditions: 1 μM ISO, 50 μM FSK
Description: Plate reading used a 420DF20 excitation filter and two emission filters (470DF40 for cyan and 535DF25 for yellow). A baseline was established in three cycles, each consisting of a full plate reading of yellow intensity, followed by a reading of cyan intensity. Cells were then treated with isoproterenol (ISO; Aldrich), forskolin (Calbiochem), H89, propranolol, and 3-isobutyl-1-methylxanthine (IBMX) as indicated. Readings were taken in six or twenty additional cycles. Each cycle lasted 60 to 145 sec. Baseline FRET ratios were calculated as the average ratio of yellow/cyan for each well before the addition of drug. FRET change was calculated as the percent increase of FRET ratio over baseline for each well during a given cycle. The FRET changes of all wells having undergone the same drug treatment were then averaged within each cycle, and that cycle was correlated with time.
Live cell plate reading. HEK293 cells were transfected with cDNA encoding ICUE reporters using calcium phosphate at 40% confluency and allowed to grow for 40 hours. Cells were then trypsinized and plated in a Costar 3603 96-well assay plate (Coming) at a density of 150,000 cells per well. After incubation for another 24 hours, cells were washed once with HBSS and left in 150 μl HBSS at 20-25° C. Fluorescence reading was taken on a FLUOstar OPTIMA fluorescence microplate reader (BMG Labtechnologies Inc.) using a 420DF20 excitation filter and two emission filters (470DF40 for cyan and […] for yellow). A baseline was established in three cycles, each consisting of a full plate reading of yellow intensity, followed by a reading of cyan intensity. Each cycle lasted between 64 and 145 seconds. Readings were taken in additional cycles. FRET change was calculated as the percent increase of emission ratios (cyan-to-yellow) over baseline for each well during a given cycle. To assess the efficacy of the assay, several statistical parameters were calculated, including Z factor, coefficient of variation, and signal-to-noise ratio (Zhang et al., J. Biomol. Screen. 4, 67-73, 1999).

cAMP [2] = experiment: High throughput 96-well plate assay using ICUE2 stable HEK293 cells
Description: HEK293 cells which stably express ICUE2 (“ICUE2 stable HEK293 cells”) were grown to confluency in 10 cm dishes in DMEM, 10% FBS, 1% penicillin/streptomycin, and 250 μg/ml G418. HEK-293 cells were transfected with cDNA encoding ICUE2 using calcium phosphate at 40% confluency and allowed to grow for 40 hours. Cells were removed from the dish using 0.05% trypsin, spun down, and replaced with fresh media. ICUE2 stable HEK293 cells were counted on a hemocytometer using trypan blue stain. One hundred fifty thousand (150,000) cells were plated per well on a 96-well clear bottom assay plate in a total of 0.2 ml of media per […] and allowed to double once. Media was removed, cells were washed with Hanks buffered salt solution (HBSS) and then covered with 0.05 ml of HBSS per well. In a separate sterile plate, appropriate drugs were added to each well containing HBSS for a total volume of 0.05 ml. […] A baseline was established in three cycles, each consisting of a full plate reading of yellow intensity, followed by a reading of cyan intensity. Cells were then treated with isoproterenol (ISO; […] Readings were taken in six or twenty additional cycles. […] Baseline FRET ratios were calculated as the average ratio of yellow/cyan for each well before the addition of drug. FRET change was calculated as the percent increase of FRET ratio over baseline for each well during a given cycle. The FRET changes of all wells having undergone the same drug treatment were then averaged within each cycle, and that cycle was correlated with time.

cAMP [3] = experiment: Dual-emission ratio (FRET) imaging of Epac-based cAMP reporters (ICUE1 and targeted fusions) in HEK-293 cells; conditions: HEK293 cells expressing ICUE1, 10 μM ISO, 50 μM FSK
Description: Cell Culture. […] Cells were then transfected with FuGENE-6 transfection reagent (Roche) or calcium phosphate and allowed to grow for 12-24 hours before imaging.
Imaging. Cells were washed twice with Hanks' balanced salt solution buffer after 12- to 24-h incubation at 37° C. culture medium. Cells were maintained in buffer in the dark at room temperature with addition of isoproterenol (Aldrich), forskolin (Calbiochem), Prostaglandin E1 (PGE1) (Sigma), and 8-(4-chloro-phenylthio)-2′-O-methyl adenosine 3′,5′-monophosphate (8-pCPT-2′-O-Me-cAMP) (Axxora Biolog) as indicated. Cells were also treated with P-(4,5-dimethoxy-2-nitrobenzyl) adenosine 3′,5′-monophosphate (DMNB-cAMP) (Molecular Probe).
Cells were imaged on a Zeiss Axiovert 200M microscope with a cooled charge-coupled device camera MicroMAX BFT512 (Roper Scientific) controlled by METAFLUOR 6.2 software (Universal Imaging). Dual-emission ratio imaging used a 420DF20 excitation filter, a 450DRLP dichroic mirror and two emission filters (475DF40 for ECFP, 535DF25 for citrine) alternated by a filter changer Lambda 10-2 (Sutter Instruments). Exposure time was 100-500 ms and images were taken every 8-30 s. Fluorescent images were background-corrected by subtracting autofluorescence intensities of untransfected cells (or background with no cells) from the emission intensities of fluorescent cells expressing reporters. The ratios of cyan to yellow emissions were then calculated at different time points and normalized by dividing all ratios by the emission ratio just prior to stimulation therefore setting the basal emission ratio to 1.

For `CC(C)NCC(O)c1ccc(O)c(O)c1` (stereo not shown) [isoproterenol], the “character of ICUE3 response (in words)” value (cAMP [1]) was “transient responses”, the “maximal response / emission ratio change” value (cAMP [1]; HEK293 cells expressing ICUE3, n=7) was 8.10%±1.4% and the “character of ICUE2 response (in words)” value (cAMP [2]; 1 μM ISO, 100 μM IBMX, 50 μM FSK) was “transient responses”. The “Average percent FRET response ± standard deviation, cycle 1” value (cAMP [2]; cycle 1 (1 cycle = 60 seconds), 1 μM Iso, 50 μM Fsk, 10 μM H89, 100 μM IBMX) was 8.22% ± 5.97%, the “Average percent FRET response ± standard deviation, cycle 2” value (cAMP [2]; cycle 2 (1 cycle = 60 seconds), 1 μM Iso, 50 μM Fsk, 10 μM H89, 100 μM IBMX) was 20.2% ± 1.69% and the “Average percent FRET response ± standard deviation, cycle 3” value (cAMP [2]; cycle 3 (1 cycle = 60 seconds), 1 μM Iso, 50 μM Fsk, 10 μM H89, 100 μM IBMX) was 21.59% ± 2.65%. For the same compound, the “Average percent FRET response ± standard deviation, cycle 4” value (cAMP [2]; cycle 4 (1 cycle = 60 seconds), 1 μM Iso, 50 μM Fsk, 10 μM H89, 100 μM IBMX) was 22.44% ± 2.42%, the “Average percent FRET response ± standard deviation, cycle 5” value (cAMP [2]; cycle 5 (1 cycle = 60 seconds), 1 μM Iso, 50 μM Fsk, 10 μM H89, 100 μM IBMX) was 21.47% ± 2.92% and the “Average percent FRET response ± standard deviation, cycle 6” value (cAMP [2]; cycle 6 (1 cycle = 60 seconds), 1 μM Iso, 50 μM Fsk, 10 μM H89, 100 μM IBMX) was 19.64% ± 1.73. The “Average percent FRET response ± standard deviation, cycle 7” value (cAMP [2]; cycle 7 (1 cycle = 60 seconds), 1 μM Iso, 50 μM Fsk, 10 μM H89, 100 μM IBMX) was 17.36% ± 1.28%, the “Average percent FRET response ± standard deviation, cycle 8” value (cAMP [2]; cycle 8 (1 cycle = 60 seconds), 1 μM Iso, 50 μM Fsk, 10 μM H89, 100 μM IBMX) was 15.93% ± 2.0% and the “Average percent FRET response ± standard deviation, cycle 9” value (cAMP [2]; cycle 9 (1 cycle = 60 seconds), 1 μM Iso, 50 μM Fsk, 10 μM H89, 100 μM IBMX) was 14.45% ± 3.55%. The “Average percent FRET response ± standard deviation, cycle 10” value (cAMP [2]; cycle 10 (1 cycle = 60 seconds), 1 μM Iso, 50 μM Fsk, 10 μM H89, 100 μM IBMX) was 11.07% ± 2.19%, the “Average percent FRET response ± standard deviation, cycle 11” value (cAMP [2]; cycle 11 (1 cycle = 60 seconds), 1 μM Iso, 50 μM Fsk, 10 μM H89, 100 μM IBMX) was 6.94% ± 1.93 and the “Average percent FRET response ± standard deviation, cycle 12” value (cAMP [2]; cycle 12 (1 cycle = 60 seconds), 1 μM Iso, 50 μM Fsk, 10 μM H89, 100 μM IBMX) was 2.26% ± 5.45%. For the same compound, the “Average percent FRET response ± standard deviation, cycle 13” value (cAMP [2]; cycle 13 (1 cycle = 60 seconds), 1 μM Iso, 50 μM Fsk, 10 μM H89, 100 μM IBMX) was 2.47% ± 6.06%, the “Average percent FRET response ± standard deviation, cycle 14” value (cAMP [2]; cycle 14 (1 cycle = 60 seconds), 1 μM Iso, 50 μM Fsk, 10 μM H89, 100 μM IBMX) was 2.27% ± 3.37% and the “Average percent FRET response ± standard deviation, cycle 15” value (cAMP [2]; cycle 15 (1 cycle = 60 seconds), 1 μM Iso, 50 μM Fsk, 10 μM H89, 100 μM IBMX) was 1.80% ± 5.84%. The “Average percent FRET response ± standard deviation, cycle 16” value (cAMP [2]; cycle 16 (1 cycle = 60 seconds), 1 μM Iso, 50 μM Fsk, 10 μM H89, 100 μM IBMX) was 1.05% ± 5.87%, the “Average percent FRET response ± standard deviation, cycle 17” value (cAMP [2]; cycle 17 (1 cycle = 60 seconds), 1 μM Iso, 50 μM Fsk, 10 μM H89, 100 μM IBMX) was 1.29% ± 2.72% and the “Average percent FRET response ± standard deviation, cycle 18” value (cAMP [2]; cycle 18 (1 cycle = 60 seconds), 1 μM Iso, 50 μM Fsk, 10 μM H89, 100 μM IBMX) was 1.68% ± 6.12%. For the same compound, the “Average percent FRET response ± standard deviation, cycle 19” value (cAMP [2]; cycle 19 (1 cycle = 60 seconds), 1 μM Iso, 50 μM Fsk, 10 μM H89, 100 μM IBMX) was 2.52% ± 3.54%, the “Average percent FRET response ± standard deviation, cycle 20” value (cAMP [2]; cycle 20 (1 cycle = 60 seconds), 1 μM Iso, 50 μM Fsk, 10 μM H89, 100 μM IBMX) was 0.93% ± 4.45% and the “time to plateau / maximal change in emission ratio” value (cAMP [3]; 10 μM PGE1) was 1.5 to 3 min. For the same compound, the “increase in the ratio of cyan to yellow emissions (FRET response)” value (cAMP [3]; 10 μM PGE1, 300 μM 8-pCPT-2′-O-Me-cAMP, average ± S.E.M) was 16.8%±1.0.
